Laboratory results as given in ChEMBL document CHEMBL1201862, “PubChem BioAssay data set” (2004).
Active and inactive are the calls of the source.

Assays:
[1] = microbe, parasite or virus in culture; format: functional; conditions: Mycobacterium tuberculosis
[2] = inhibition of ADAM10 peptide cleavage – biochemical, FRET peptide substrate, recombinant human ADAM10, selectivity assay for ADAM17 exosite inhibitor project, dose response (AID 743259);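 further: ADAM10 enzyme cleaving a FRET peptide substrate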
[3] = target: Disintegrin and metalloproteinase domain-containing protein 17 (Homo sapiens, UniProt P78536); experiment: exosite inhibitors of ADAM17, dose response, biochemical (AID 743260)
[4] = target: Heat shock protein HSP 90-alpha (Homo sapiens, UniProt P07900); experiment: Luminescence-based dose response biochemical high throughput screening assay for inhibitors of the Heat Shock Protein 90 (HSP90). [Related pubchem assays: 1831 (Summary AID.), 1846 (Confirmation screen.), 1789 (Primary screen.)]
[5] = alpha-synuclein stem-loop luciferase translation blockers – H4 neuroglioma cells, luminescence, confirmation (AID 1988); format: functional, cell-based
Transthyretin = Transthyretin (Homo sapiens, UniProt P02766); experiment: Luminescence-based cell-based high throughput dose response assay to identify activators of Transthyretin (TTR) transcription.; format: functional
[6] = Luminescence Cell-Based Dose Response HTS to Identify Inhibitors of 5'UTR Stem-Loop Driven Prion Protein mRNA Translation in H4 Neuroglioblastoma Cells. [Related pubchem assays: 1827 (Project Summary), 1813 (Primary HTS)]; format: functional
[7] = luciferase reporter signal suppression in cells – H4 neuroglioma cells, luminescence, dose response (AID 1990); format: functional, cell-based
[8] = blockers of HIV-1 envelope-mediated cell-cell fusion – cherry-pick, dose response (AID 652057); format: functional, cell-based
[9] = target: COUP transcription factor 2 (Homo sapiens, UniProt P24468); experiment: Luminescence-based cell-based high throughput dose response assay to identify inhibitors of COUP-TFII (NR2F2).; format: functional;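 further: HEK293 cells transiently cotransfected with COUP-TFII expression vector and reporter; luciferase reporter luminescence driven by COUP-TFII from the pX2-168 reporter plasmid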
[10] = HIV-1 AD8 envelope cell-cell fusion blockers – cherry-pick, dose response (AID 652062); format: functional, cell-based;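 further: luciferase signal from cell-cell fusion driven by HIV-1 clade B AD8 Env; potency is for inhibitors of fusion seen as a drop in luminescence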
[11] = viability loss in CEM21 cells – cell-based, CellTiter-Glo luminescence, cherry-picked, cytotoxicity control for viral fusion inhibitor project, dose response (AID 652042); format: functional;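 further: potency for signal decrease meaning cytotoxicity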
[12] = off-target signal loss in HeLa-CEM21 co-culture – HeLa F-luc CTL cells, cherry-picked, counter-screen for HIV-1 Env fusion inhibitor project, dose response (AID 652040); format: functional, cell-based;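 further: potency for signal decrease marking cytotoxic or nonspecific inhibition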
[13] = blockers of HIV-1 ZM109 envelope-driven cell-cell fusion – HeLa effector, CEM target cells, luciferase, cherry-pick, dose response (AID 652058); format: functional, cell-based;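 further: luciferase signal from HIV-1 Env mediated cell-cell fusion of effector and target cells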
fMet-Leu-Phe receptor = fMet-Leu-Phe receptor (Homo sapiens, UniProt P21462); experiment: formyl peptide receptor binders – dose response (AID 519); format: functional
[14] = HEK293 Cytotoxicity Assay Measured in Cell-Based System Using Plate Reader - 7071-01_Inhibitor_Dose_CherryPick_Activity_Set2.; format: functional
HEK293 = experiment: viability loss in HEK293T cells – cell-based, ATP luminescence, cherry-pick samples, cytotoxicity control, dose response (AID 687005); format: functional; conditions: Homo sapiens;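 further: cells exposed to compound for 48 hours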
Kallikrein-7 = Kallikrein-7 (Homo sapiens, UniProt P49862); experiment: Fluorescence Intensity-based biochemical primary high throughput dose response assay to identify activators of kallikrein-7 (K7) zymogen.
[15] = target: Glucose-6-phosphate 1-dehydrogenase (Homo sapiens, UniProt P11413); experiment: inhibition of Homo sapiens G6PD, dose series – biochemical, fluorescence, selectivity assay for P. falciparum G6PD inhibitor project, dose response (AID 504792); format: functional
Caspase-7 = target: T1, Caspase-7 (Homo sapiens, UniProt P55210); experiment: caspase-7 enzyme inhibition, selectivity check – biochemical, DEVD-R110 fluorescence, cherry-pick, selectivity assay for caspase-6 inhibitor project, dose response (AID 743295); format: functional
T1 sequence (P55210 whole entry): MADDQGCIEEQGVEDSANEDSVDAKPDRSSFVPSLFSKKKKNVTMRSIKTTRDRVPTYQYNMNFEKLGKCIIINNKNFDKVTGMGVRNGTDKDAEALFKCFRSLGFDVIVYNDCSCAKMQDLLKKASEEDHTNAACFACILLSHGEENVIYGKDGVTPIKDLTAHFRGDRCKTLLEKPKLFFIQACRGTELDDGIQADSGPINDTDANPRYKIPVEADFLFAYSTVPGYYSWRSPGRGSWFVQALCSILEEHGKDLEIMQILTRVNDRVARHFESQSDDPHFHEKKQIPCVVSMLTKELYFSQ

Caspase-6 = target: T2, Caspase-6 (Homo sapiens, UniProt P55212); experiment: inhibition of CASP6 peptide cleavage – biochemical, VEID-R110 fluorescence, cherry-pick, dose response (AID 720632)
T2 sequence (P55212 whole entry): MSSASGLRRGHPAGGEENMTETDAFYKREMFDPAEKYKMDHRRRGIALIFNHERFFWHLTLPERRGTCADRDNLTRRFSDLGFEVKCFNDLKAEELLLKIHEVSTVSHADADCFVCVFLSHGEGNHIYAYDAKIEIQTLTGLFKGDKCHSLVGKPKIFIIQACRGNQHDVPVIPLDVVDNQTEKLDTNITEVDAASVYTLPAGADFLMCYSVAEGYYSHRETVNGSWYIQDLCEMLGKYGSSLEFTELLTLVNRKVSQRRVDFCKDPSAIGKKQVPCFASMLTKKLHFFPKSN

[16] = target: T3, Endoribonuclease toxin MazF (Escherichia coli K-12, UniProt P0AE70); experiment: substrate-only fluorescence increase artefacts – biochemical, single-stranded RNase substrate, counter-screen for MazEF activator project, dose response (AID 588502); format: functional
T3 sequence (P0AE70 whole entry): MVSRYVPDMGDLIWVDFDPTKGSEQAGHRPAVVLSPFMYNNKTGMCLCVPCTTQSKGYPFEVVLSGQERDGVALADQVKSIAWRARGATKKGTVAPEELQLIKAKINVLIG

[17] = target: T3, Endoribonuclease toxin MazF; experiment: activation of MazEF endoribonuclease cleavage – biochemical, fluorescence, single-stranded RNA substrate, uHTS hits, dose response (AID 588481); format: functional
[18] = reduction of Shn3 3'UTR-driven luciferase in osteoblasts – cell-based, Clone20 osteoblasts, firefly luciferase, cherry-picked, dose response (AID 624132); format: functional;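 further: firefly luciferase luminescence from reporter carrying the Shn3 3'UTR in osteoblasts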
[19] = target: 1-phosphatidylinositol 4,5-bisphosphate phosphodiesterase beta-3 (Homo sapiens, UniProt Q01970); experiment: Fluorescence-based biochemical high throughput dose response assay to identify inhibitors of phospholipase C isozymes (PLC-B3).
[20] = loss of viability in HepG2 cells – cell-based, CellTiter-Glo, cherry-picked, cytotoxicity control for Shn3 inhibitor project, dose response (AID 624134); format: functional
[21] = non-specific 3'UTR reporter inhibition in Clone20-Shn3RL – cell-based, Renilla luciferase, cherry-picked, counter-screen for Shn3 inhibitor project, dose response (AID 624133); format: functional
[22] = target: 1-phosphatidylinositol 4,5-bisphosphate phosphodiesterase gamma-1 (Homo sapiens, UniProt P19174); experiment: Counterscreen for inhibitors of phospholipase C isozymes (PLC-B3): Fluorescence-based biochemical high throughput dose response assay to identify inhibitors of phospholipase C isozymes (PLC-gamma1).
[23] = OVCAR8 cell viability loss – plate reader, dry powder samples, PAX8 project, dose response (AID 743197); format: functional, cell-based; conditions: OVCAR-8
[24] = OVCAR-3 cell viability loss – plate reader, dry powder samples, PAX8 inhibitor project, dose response (AID 743044); format: functional, cell-based
Paired box protein Pax-8 = Paired box protein Pax-8 (Homo sapiens, UniProt Q06710); experiment: PAX8 transcriptional activity inhibition in RMG-I – RMG-I cells, luciferase, cherry-pick, dose response (AID 687027); format: functional, cell-based;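 further: luciferase reporter driven by Pax8 target thyroperoxidase promoter measured by SteadyGlo luminescence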
[25] = IGROV1 cell killing – plate reader, dry powder samples, PAX8 inhibitor project, dose response (AID 743043); format: functional, cell-based; conditions: IGROV-1
[26] = target: Potassium channel subfamily K member 3 (Homo sapiens, UniProt O14649); experiment: inhibition of human KCNK3 channel flux – CHO cells, FluxOR thallium flux, SAR follow-up (AID 652212); format: functional
[27] = target: Potassium channel subfamily K member 9 (Homo sapiens, UniProt Q9NPC2); experiment: KCNK9 flux blockade, concentration-response – cell-based, FluxOR thallium flux, selectivity assay for TASK1 inhibitor project, SAR follow-up (AID 652211); format: functional;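 further: potency is for inhibitors of the channel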
[28] = reduced cellular PGC1a acetyl-lysine signal – cell-based, cherry-picked samples, dose response (AID 720514); format: functional;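 further: potency may reflect raised or lowered acetylation signal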
[29] = glucagon-like peptide-1 release potency in STC-1, concentration-response, half-maximal inhibitory concentration in the STC-1 line (AID 1117345); format: functional, cell-based
[30] = Potency on glucagon-like peptide 1 release, dose-response in NCI-H716 cell line, half maximal inhibitory concentration (AID 1117344); format: functional, cell-based

Disintegrin and metalloproteinase domain-containing protein 17, sequence (P78536 whole entry, the tested form may be a part): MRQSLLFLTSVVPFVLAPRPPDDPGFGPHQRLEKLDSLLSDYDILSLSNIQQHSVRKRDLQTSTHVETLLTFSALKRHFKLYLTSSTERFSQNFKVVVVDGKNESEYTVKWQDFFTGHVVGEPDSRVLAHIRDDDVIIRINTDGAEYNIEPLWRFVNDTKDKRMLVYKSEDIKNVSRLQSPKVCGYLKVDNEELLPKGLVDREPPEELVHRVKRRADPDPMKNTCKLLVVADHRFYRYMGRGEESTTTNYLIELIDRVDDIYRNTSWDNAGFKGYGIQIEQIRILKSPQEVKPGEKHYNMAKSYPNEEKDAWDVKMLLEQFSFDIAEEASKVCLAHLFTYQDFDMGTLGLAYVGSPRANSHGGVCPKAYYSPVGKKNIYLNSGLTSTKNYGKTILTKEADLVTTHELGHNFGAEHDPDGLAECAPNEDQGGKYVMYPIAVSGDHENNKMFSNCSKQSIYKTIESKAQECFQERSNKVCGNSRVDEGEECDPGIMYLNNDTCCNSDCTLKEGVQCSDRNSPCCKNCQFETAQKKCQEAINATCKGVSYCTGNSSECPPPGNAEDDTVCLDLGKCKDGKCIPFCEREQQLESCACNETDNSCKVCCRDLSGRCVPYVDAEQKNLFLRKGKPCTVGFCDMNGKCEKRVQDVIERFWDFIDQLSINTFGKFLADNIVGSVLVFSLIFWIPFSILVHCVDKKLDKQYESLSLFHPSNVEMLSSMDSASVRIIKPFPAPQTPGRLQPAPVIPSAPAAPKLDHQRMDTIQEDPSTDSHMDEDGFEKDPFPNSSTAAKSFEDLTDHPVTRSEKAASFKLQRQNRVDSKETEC
Potassium channel subfamily K member 9, sequence (Q9NPC2 whole entry): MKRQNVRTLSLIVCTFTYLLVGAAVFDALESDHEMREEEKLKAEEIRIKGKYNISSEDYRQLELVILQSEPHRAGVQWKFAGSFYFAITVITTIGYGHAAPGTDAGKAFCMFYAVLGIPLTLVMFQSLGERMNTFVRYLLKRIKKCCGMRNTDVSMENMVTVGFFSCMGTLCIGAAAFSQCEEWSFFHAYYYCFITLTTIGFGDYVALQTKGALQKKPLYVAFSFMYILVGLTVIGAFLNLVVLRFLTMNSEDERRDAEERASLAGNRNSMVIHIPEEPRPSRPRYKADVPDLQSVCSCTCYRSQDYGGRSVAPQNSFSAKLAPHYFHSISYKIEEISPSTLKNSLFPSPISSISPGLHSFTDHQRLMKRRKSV
Potassium channel subfamily K member 3, sequence (O14649 whole entry): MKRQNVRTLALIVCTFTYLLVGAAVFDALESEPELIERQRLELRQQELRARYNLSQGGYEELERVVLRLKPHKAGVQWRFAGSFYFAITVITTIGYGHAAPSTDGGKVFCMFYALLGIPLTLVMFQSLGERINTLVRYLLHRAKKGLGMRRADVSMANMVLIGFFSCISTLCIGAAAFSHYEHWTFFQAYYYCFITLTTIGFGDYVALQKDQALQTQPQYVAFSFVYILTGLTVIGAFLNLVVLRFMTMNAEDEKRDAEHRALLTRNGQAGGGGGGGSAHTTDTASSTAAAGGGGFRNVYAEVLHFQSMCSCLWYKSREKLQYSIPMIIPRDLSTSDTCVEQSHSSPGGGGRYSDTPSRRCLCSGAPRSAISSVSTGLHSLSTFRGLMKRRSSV
COUP transcription factor 2, sequence (P24468 whole entry, the tested form may be a part): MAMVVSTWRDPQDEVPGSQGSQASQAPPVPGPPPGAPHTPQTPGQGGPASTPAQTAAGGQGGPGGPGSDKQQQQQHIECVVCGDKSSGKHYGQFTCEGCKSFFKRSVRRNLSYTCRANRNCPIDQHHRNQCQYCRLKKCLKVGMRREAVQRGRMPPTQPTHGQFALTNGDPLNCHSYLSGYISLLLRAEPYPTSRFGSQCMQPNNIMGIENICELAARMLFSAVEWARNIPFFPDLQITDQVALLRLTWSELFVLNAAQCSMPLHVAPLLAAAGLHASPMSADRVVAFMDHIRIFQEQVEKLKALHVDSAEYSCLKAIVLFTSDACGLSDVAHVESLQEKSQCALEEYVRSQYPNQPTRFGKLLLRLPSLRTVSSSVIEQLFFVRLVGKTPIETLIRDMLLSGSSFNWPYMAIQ
fMet-Leu-Phe receptor, sequence (P21462 whole entry): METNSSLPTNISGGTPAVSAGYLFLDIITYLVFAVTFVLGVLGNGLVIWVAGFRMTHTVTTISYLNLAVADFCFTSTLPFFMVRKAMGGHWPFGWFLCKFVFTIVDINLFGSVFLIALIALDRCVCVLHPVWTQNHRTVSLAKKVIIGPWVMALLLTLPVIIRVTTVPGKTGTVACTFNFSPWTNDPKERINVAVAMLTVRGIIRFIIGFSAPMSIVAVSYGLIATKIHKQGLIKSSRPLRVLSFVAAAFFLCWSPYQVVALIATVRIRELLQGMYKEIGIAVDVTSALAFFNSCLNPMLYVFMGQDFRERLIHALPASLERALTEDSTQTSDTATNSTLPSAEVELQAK
Paired box protein Pax-8, sequence (Q06710 whole entry): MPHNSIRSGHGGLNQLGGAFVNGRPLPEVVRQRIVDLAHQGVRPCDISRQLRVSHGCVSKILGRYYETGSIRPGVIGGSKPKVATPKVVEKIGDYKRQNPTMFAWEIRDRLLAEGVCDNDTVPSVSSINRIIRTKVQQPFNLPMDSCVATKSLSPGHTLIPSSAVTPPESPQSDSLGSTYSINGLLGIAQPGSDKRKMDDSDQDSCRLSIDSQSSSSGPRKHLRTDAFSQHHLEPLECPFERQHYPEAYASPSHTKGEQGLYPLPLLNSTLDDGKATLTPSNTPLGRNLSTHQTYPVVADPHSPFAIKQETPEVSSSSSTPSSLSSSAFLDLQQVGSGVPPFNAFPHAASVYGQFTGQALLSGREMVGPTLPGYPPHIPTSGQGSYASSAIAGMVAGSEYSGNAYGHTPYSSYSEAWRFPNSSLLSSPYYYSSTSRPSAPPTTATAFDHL
1-phosphatidylinositol 4,5-bisphosphate phosphodiesterase gamma-1, sequence (P19174 whole entry): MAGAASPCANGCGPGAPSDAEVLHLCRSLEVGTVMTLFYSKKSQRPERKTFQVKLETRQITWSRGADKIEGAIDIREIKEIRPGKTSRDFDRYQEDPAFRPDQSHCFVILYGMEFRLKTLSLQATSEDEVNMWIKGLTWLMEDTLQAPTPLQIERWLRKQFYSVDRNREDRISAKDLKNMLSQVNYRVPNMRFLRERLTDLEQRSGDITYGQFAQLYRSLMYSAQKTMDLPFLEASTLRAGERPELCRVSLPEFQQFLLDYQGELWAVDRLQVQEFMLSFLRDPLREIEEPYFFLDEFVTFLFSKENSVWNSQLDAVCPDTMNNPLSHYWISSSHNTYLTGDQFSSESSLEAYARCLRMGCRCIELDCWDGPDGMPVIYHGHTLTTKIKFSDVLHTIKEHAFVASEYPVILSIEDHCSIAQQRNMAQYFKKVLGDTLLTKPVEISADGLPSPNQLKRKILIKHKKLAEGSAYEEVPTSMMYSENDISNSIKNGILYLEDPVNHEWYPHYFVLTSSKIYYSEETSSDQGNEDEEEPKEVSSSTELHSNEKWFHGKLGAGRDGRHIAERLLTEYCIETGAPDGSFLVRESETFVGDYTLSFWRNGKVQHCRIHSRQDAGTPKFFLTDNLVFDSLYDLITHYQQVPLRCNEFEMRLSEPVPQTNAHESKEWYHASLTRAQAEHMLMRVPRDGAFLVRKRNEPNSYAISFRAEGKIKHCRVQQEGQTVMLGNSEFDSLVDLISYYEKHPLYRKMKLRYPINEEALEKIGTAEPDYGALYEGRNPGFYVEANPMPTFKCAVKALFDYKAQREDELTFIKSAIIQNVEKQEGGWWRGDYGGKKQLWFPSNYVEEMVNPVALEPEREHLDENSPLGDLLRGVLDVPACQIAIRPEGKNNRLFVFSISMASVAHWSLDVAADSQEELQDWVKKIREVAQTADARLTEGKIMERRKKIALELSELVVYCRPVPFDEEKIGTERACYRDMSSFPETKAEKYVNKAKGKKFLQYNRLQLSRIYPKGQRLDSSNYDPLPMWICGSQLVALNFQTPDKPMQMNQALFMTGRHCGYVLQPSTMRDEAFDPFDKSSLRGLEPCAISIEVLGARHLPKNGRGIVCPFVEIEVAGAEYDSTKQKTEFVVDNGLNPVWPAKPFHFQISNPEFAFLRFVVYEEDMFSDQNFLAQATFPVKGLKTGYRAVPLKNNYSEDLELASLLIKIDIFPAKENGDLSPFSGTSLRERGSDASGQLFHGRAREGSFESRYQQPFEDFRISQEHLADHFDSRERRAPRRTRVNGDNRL
Glucose-6-phosphate 1-dehydrogenase, sequence (P11413 whole entry): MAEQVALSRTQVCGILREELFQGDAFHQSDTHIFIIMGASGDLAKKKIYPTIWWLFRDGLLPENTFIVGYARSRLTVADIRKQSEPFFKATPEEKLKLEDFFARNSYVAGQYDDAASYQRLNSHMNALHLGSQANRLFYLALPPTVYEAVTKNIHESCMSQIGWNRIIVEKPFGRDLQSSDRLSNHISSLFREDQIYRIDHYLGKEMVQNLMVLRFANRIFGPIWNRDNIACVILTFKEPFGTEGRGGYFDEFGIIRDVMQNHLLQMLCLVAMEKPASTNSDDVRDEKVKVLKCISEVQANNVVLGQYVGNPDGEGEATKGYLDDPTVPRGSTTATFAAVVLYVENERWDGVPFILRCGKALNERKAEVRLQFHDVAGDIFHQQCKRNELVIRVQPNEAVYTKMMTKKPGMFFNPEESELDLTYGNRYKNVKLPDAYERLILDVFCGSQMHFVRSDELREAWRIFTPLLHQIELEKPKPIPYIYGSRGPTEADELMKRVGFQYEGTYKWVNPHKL
Kallikrein-7, sequence (P49862 whole entry): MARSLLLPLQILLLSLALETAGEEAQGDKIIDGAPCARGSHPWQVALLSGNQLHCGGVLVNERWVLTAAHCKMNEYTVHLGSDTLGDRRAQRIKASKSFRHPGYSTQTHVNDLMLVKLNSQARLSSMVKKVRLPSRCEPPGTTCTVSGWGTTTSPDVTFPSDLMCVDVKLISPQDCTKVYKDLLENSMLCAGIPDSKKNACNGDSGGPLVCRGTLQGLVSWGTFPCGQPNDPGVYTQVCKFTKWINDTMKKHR

## CCOc1ccc(-c2[nH]ncc2-c2ccc(Cl)cc2)c(O)c1
[1]
  CC50: > 40 µM (active)
[2]
  IC50: 23.7 µM (inactive)
[3]
  IC50: > 69.5 µM (inactive)

## COc1ccc(-c2cn3c(C)c(C(=O)Nc4cccc(C)n4)sc3n2)cc1
[4]
  IC50: 327 nM (active)

## Cc1ccc(CNC(=O)Cc2ccc(-c3ccccc3)cc2)cc1
[5]
  EC50: 6.89 µM (active)
Transthyretin
  EC50: > 167 µM (inactive)
[6]
  EC50: 10.4 µM (active)
[7]
  EC50: > 120 µM (not active)

## Cc1cccc(Nc2nc(-c3c(C)nc4ccccn34)cs2)c1
[8]
  AC50: 6.19 µM (active)
[9]
  IC50: 8.41 µM (active)
[10]
  AC50: 7.63 µM (active)
[11]
  AC50: 29.6 µM (active)
[12]
  AC50: 2.7 µM (active)
[13]
  AC50: 7.64 µM (active)

## CCc1cc(C(=O)OC)c(NC(=O)C2CC(=O)NN2Cc2ccccc2)s1 (stereo not given)
[2]
  IC50: > 69.5 µM (inactive)
[3]
  IC50: > 69.5 µM (inactive)

## CCOc1ccc(C(=O)C2=C(O)C(=O)N(CC3CCCO3)C2c2ccc(C)o2)cc1 (stereo not given)
fMet-Leu-Phe receptor
  Ki: 21.1 µM (inactive)

## CC(NC(=O)COc1ccccc1-c1ccccc1)c1ccccc1 (stereo not given)
[14]
  AC50: 35.9 µM (active)
HEK293
  AC50: 35.9 µM (active)

## COc1ccccc1C1C=C(c2ccccc2)Nc2nnnn21 (stereo not given)
Kallikrein-7
  EC50: 12.1 µM (inactive)

## Cc1ccc([S+]([O-])c2ccc([N+](=O)[O-])c3nonc23)cc1 (stereo not given)
[15]
  IC50: 42.3 µM (inactive)
Caspase-7
  AC50: > 70 µM (inactive)
Caspase-6
  AC50: 2.56 µM (active)
[16]
  EC50: > 99 µM (inactive)
[17]
  EC50: > 99 µM (inactive)

## O=C(c1cccc(S(=O)(=O)N2CCN(c3ccc(F)cc3)CC2)c1)N1CCCC(C(F)(F)F)C1 (stereo not given)
[18]
  AC50: 942 nM (active)
[19]
  IC50: > 122 µM (inactive)
[20]
  AC50: 2.61 µM (active)
[21]
  AC50: 8.1 µM (active)
[22]
  IC50: > 122 µM (inactive)

## O=C(C1=C(O)C(=O)N(Cc2ccccc2)C1c1cccnc1)c1ccco1 (stereo not given)
fMet-Leu-Phe receptor
  Ki: 30.5 µM (inactive)

## O=C(C[C@H]1CC[C@H]2[C@@H](COC[C@H](O)CN2Cc2cccc(Cl)c2)O1)Nc1nccs1
[14]
  AC50: 16.7 µM (active)
HEK293
  AC50: 16.7 µM (active)

## C[C@@H]1CN([C@H](C)CO)C(=O)c2cc(NC(=O)CCC(F)(F)F)ccc2O[C@@H](C)CCCCO[C@@H]1CN(C)Cc1ccc(C(F)(F)F)cc1
[23]
  AC50: 45.3 µM (active)
[24]
  AC50: 26.5 µM (active)
Paired box protein Pax-8
  AC50: 8.65 µM (active)

## C[C@@H]1CN([C@@H](C)CO)C(=O)c2cc(NC(=O)Cc3ccccc3)ccc2O[C@@H](C)CCCCO[C@@H]1CN(C)Cc1ccc(C(F)(F)F)cc1
[25]
  AC50: 31.7 µM (active)
[23]
  AC50: > 70 µM (inactive)
Paired box protein Pax-8
  AC50: 7.23 µM (active)

## O=C(c1cccs1)C1CCN(c2ncnc3sccc23)CC1
[9]
  IC50: 4.18 µM (active)

## COc1ccccc1C(=O)Nc1cc(NC(=O)c2cccc(C)c2)ccc1F
[26]
  IC50: 159 nM (active)
[27]
  IC50: 6.31 µM (active)

## N#Cc1ccc(-c2ccc([C@@H]3[C@H]4CNC[C@@H]3N4Cc3ccc4c(c3)OCO4)cc2)cc1
[28]
  AC50: 16.9 µM (active)

## CCOc1ccccc1NC(=O)c1cccc(NC(=O)c2ccccc2OC)c1
[26]
  IC50: 7 nM (active)
[27]
  IC50: 1.18 µM (active)

## Cc1ccccc1Cn1cc(COC(=O)N(C)Cc2ccccc2)nn1
Transthyretin
  EC50: > 167 µM (inactive)

## Cc1c(C)n(CCN(C)C)c2ccc(C(=O)OCCN(C)C)cc12 [AMINDOCATE]
[29]
  IC50: 1.2 µM (active)
[30]
  IC50: > 40 µM (inactive)

## O=c1[nH]sc2cc(Cl)ccc12 [TICLATONE]
[29]
  IC50: > 40 µM (inactive)
[30]
  IC50: > 40 µM (inactive)
